Measured values as given in patent US10167293B2, “[8-(phenylsulfonyl)-3,8-diazabicyclo[3.2.1]oct-3-yl](1H-1,2,3-triazol-4-yl)methanones” (BAYER PHARMA AKTIENGESELLSCHAFT, priority 2016, dated 2019).

Each molecule was assayed against recombinant human AKR1C3 (Homo sapiens (Human), UniProt P42330) (assay: AKR1C3-inhibitory activity assay (Coumberone to Coumberol fluorescence)). Settings: recombinant human AKR1C3, 15 min pre-incubation, 10 μM NADPH, 0.3 μM Coumberone.
Sequence of recombinant human AKR1C3 (P42330 whole entry): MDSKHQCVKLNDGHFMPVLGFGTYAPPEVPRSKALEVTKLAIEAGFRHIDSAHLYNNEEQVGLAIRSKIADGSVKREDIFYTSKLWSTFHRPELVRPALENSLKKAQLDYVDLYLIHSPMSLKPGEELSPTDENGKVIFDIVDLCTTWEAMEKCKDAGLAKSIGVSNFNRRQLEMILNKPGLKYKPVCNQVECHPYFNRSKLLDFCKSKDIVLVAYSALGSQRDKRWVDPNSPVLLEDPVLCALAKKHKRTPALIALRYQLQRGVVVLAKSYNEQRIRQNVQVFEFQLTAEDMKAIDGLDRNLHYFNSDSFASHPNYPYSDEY
Format: biochemical
Description: The AKR1C3-inhibitory activity of the substances of the present invention was measured in the AKR1C3 assay described in the paragraphs below.
Essentially, the enzyme activity is measured by quantification of the generation of Coumberol from Coumberone (Halim et al. J. AM. CHEM. SOC. 2008, 130:14123-14128 and Yee et al. Proc. Natl. Acad. Sci. USA 2006, 103:13304-13309). In this test, the increase of the highly fluorescent Coumberol by NADPH—(nicotinamide adenine dinucleotide phosphate)-dependent reduction of the non-fluorescent Coumberone by AKR1C3 was determined.
The enzyme used was recombinant human AKR1C3 (Aldo-keto reductase family 1 member C3; GenBank Accession No. NM_003739). This was expressed in E. coli as GST (glutathione S transferase) fusion protein and purified by glutathione Sepharose affinity chromatography. The GST was removed by digestion with thrombin and subsequent size exclusion chromatography (Dufort, I., Rheault, P., Huang, X F., Soucy, P., and Luu-The, V., Endocrinology 140, 568-574 (1999)).
For the assay, 50 nl of a 100-fold concentrated solution of the test substance in DMSO were pipetted into a black low-volume 384-well microtiter plate (Greiner Bio-One, Frickenhausen, Germany), 2.5 μl of a solution of AKR1C3 in assay buffer [50 mM potassium phosphate buffer pH 7, 1 mM DTT, 0.0022% (w/v) Pluronic F-127, 0.01% BSA (w/v) and protease inhibitor cocktail (Complete, EDTA-free Protease Inhibitor Cocktail from Roche)] were added and the mixture was incubated for 15 min to allow pre-binding of the substances to the enzyme prior to the enzyme reaction. The enzyme reaction was then started by addition of 2.5 μl of a solution of NADPH (20 μM→final concentration in 5 μl of assay volume is 10 μM) and Coumberone (0.6 μM→final concentration in 5 μl of assay volume is 0.3 μM) in assay buffer, and the resulting mixture was incubated at 22° C. for the reaction time of typically 90 min. The concentration of the AKR1C3 and the reaction time was adapted to the respective activity of the enzyme preparation and adjusted such that the assay was carried out in the linear range. Typical AKR1C3 concentrations were in the region of 1 nM. The reaction was stopped by addition of 2.5 μl of a stop solution consisting of 3 μM EM-1404 as inhibitor (U.S. Pat. No. 6,541,463) in 50 mM HEPES pH7.5 (3 μM EM-1404→final concentration in 7.5 μl of assay volume is 1 μM). The fluorescence of the Coumberole was then measured at 520 nm (excitation at 380 nm) using a suitable measuring instrument (Pherastar from BMG Labtechnologies). The intensity of the fluorescence was used as a measure of the amount of Coumberole formed and thus of the enzyme activity of AKR1C3. The data were normalized (enzyme reaction without inhibitor=0% inhibition; all other assay components, but no enzyme=100% inhibition).
O=C(c1cnn[nH]1)N1CC2CCC(C1)N2S(=O)(=O)c1cccc(OC(F)(F)F)c1 [Example 33, 1H-1,2,3-triazol-5-yl[8-{[3-(trifluoromethoxy)phenyl]sulfonyl}-3,8-diazabicyclo[3.2.1]oct-3-yl]methanone] showed an IC50 of 1.8 nM. In the case of O=C(c1cnn[nH]1)N1CC2CCC(C1)N2S(=O)(=O)c1cc(Cl)ccc1C(F)(F)F [Example 34, [8-{[5-chloro-2-(trifluoromethyl)phenyl]sulfonyl}-3,8-diazabicyclo[3.2.1]oct-3-yl](1H-1,2,3-triazol-5-yl)methanone], the IC50 is reported as 1.9 nM. Work on N#Cc1ccccc1S(=O)(=O)N1C2CCC1CN(C(=O)c1cnn[nH]1)C2 [Example 35, 2-{[3-(1H-1,2,3-triazol-5-ylcarbonyl)-3,8-diazabicyclo[3.2.1]oct-8-yl]sulfonyl}benzonitrile] yielded an IC50 of 6 nM. Molecule O=C(c1cnn[nH]1)N1CC2CCC(C1)N2S(=O)(=O)c1ccc(C(F)(F)F)cc1 [Example 36, 1H-1,2,3-triazol-5-yl[8-{[4-(trifluoromethyl)phenyl]sulfonyl}-3,8-diazabicyclo[3.2.1]oct-3-yl]methanone] has an IC50 of 3.3 nM. In the case of O=C(c1cnn[nH]1)N1CC2CCC(C1)N2S(=O)(=O)c1ccc(O)cc1 [Example 37, {8-[(4-hydroxyphenyl)sulfonyl]-3,8-diazabicyclo[3.2.1]oct-3-yl}(1H-1,2,3-triazol-5-yl)methanone], the IC50 is reported as 2.8 nM. O=C(c1cnn[nH]1)N1CC2CCC(C1)N2S(=O)(=O)c1ccc(Br)cc1 [Example 38, {8-[(4-bromophenyl)sulfonyl]-3,8-diazabicyclo[3.2.1]oct-3-yl}(1H-1,2,3-triazol-5-yl)methanone] was tested, and the IC50 was 1.5 nM. In the case of O=C(c1cnn[nH]1)N1CC2CCC(C1)N2S(=O)(=O)c1cccc2ccccc12 [Example 39, [8-(naphthalen-1-ylsulfonyl)-3,8-diazabicyclo[3.2.1]oct-3-yl](1H-1,2,3-triazol-5-yl)methanone], the IC50 is reported as 1.3 nM. In the case of O=C(c1cnn[nH]1)N1CC2CCC(C1)N2S(=O)(=O)c1cccc2cccnc12 [Example 40, [8-(quinolin-8-ylsulfonyl)-3,8-diazabicyclo[3.2.1]oct-3-yl](1H-1,2,3-triazol-5-yl)methanone], the IC50 is reported as 3.4 nM. O=C(c1cnn[nH]1)N1CC2CCC(C1)N2S(=O)(=O)c1ccc(OC(F)(F)F)cc1 [Example 41, 1H-1,2,3-triazol-5-yl[8-{[4-(trifluoromethoxy)phenyl]sulfonyl}-3,8-diazabicyclo[3.2.1]oct-3-yl]methanone] gave an IC50 of 6.5 nM. O=C(c1cnn[nH]1)N1CC2CCC(C1)N2S(=O)(=O)c1ccccc1OC(F)(F)F [Example 42, 1H-1,2,3-triazol-5-yl[8-{[2-(trifluoromethoxy)phenyl]sulfonyl}-3,8-diazabicyclo[3.2.1]oct-3-yl]methanone] gave an IC50 of 1.1 nM. O=C(c1cnn[nH]1)N1CC2CCC(C1)N2S(=O)(=O)c1ccc([N+](=O)[O-])cc1 [Example 43, {8-[(4-nitrophenyl)sulfonyl]-3,8-diazabicyclo[3.2.1]oct-3-yl}(1H-1,2,3-triazol-5-yl)methanone] gave an IC50 of 9.1 nM. For O=C(c1cnn[nH]1)N1CC2CCC(C1)N2S(=O)(=O)c1cccc([N+](=O)[O-])c1 [Example 44, {8-[(3-nitrophenyl)sulfonyl]-3,8-diazabicyclo[3.2.1]oct-3-yl}(1H-1,2,3-triazol-5-yl)methanone], the IC50 was 1.9 nM. With Cc1cc(C)c(S(=O)(=O)N2C3CCC2CN(C(=O)c2cnn[nH]2)C3)c(C)c1 [Example 45, 1H-1,2,3-triazol-5-yl{8-[(2,4,6-trimethylphenyl)sulfonyl]-3,8-diazabicyclo[3.2.1]oct-3-yl}methanone] the IC50 was 1.4 nM. O=C(c1cnn[nH]1)N1CC2CCC(C1)N2S(=O)(=O)c1ccccc1[N+](=O)[O-] [Example 46, {8-[(2-nitrophenyl)sulfonyl]-3,8-diazabicyclo[3.2.1]oct-3-yl}(1H-1,2,3-triazol-5-yl)methanone] gave an IC50 of 0.9 nM. COc1ccc(OC)c(S(=O)(=O)N2C3CCC2CN(C(=O)c2cnn[nH]2)C3)c1 [Example 47, {8-[(2,5-dimethoxyphenyl)sulfonyl]-3,8-diazabicyclo[3.2.1]oct-3-yl}(1H-1,2,3-triazol-5-yl)methanone] gave an IC50 of 29.8 nM. For O=C(c1cnn[nH]1)N1CC2CCC(C1)N2S(=O)(=O)c1ccc(Cl)c(Cl)c1 [Example 48, {8-[(3,4-dichlorophenyl)sulfonyl]-3,8-diazabicyclo[3.2.1]oct-3-yl}(1H-1,2,3-triazol-5-yl)methanone], the IC50 was 1.1 nM. With CCc1ccc(S(=O)(=O)N2C3CCC2CN(C(=O)c2cnn[nH]2)C3)cc1 [Example 49, {8-[(4-ethylphenyl)sulfonyl]-3,8-diazabicyclo[3.2.1]oct-3-yl}(1H-1,2,3-triazol-5-yl)methanone] the IC50 was 1.2 nM. Molecule O=C(c1cnn[nH]1)N1CC2CCC(C1)N2S(=O)(=O)c1ccc(F)cc1Cl [Example 50, {8-[(2-chloro-4-fluorophenyl)sulfonyl]-3,8-diazabicyclo[3.2.1]oct-3-yl}(1H-1,2,3-triazol-5-yl)methanone] has an IC50 of 0.9 nM. With Cc1cccc(Cl)c1S(=O)(=O)N1C2CCC1CN(C(=O)c1cnn[nH]1)C2 [Example 51, {8-[(2-chloro-6-methylphenyl)sulfonyl]-3,8-diazabicyclo[3.2.1]oct-3-yl}(1H-1,2,3-triazol-5-yl)methanone] the IC50 was 0.8 nM. In the case of O=C(c1cnn[nH]1)N1CC2CC[C@@H](C1)N2S(=O)(=O)c1cccc(Cl)c1Cl [Example 53, {(1S)-8-[(2,3-dichlorophenyl)sulfonyl]-3,8-diazabicyclo[3.2.1]oct-3-yl}(1H-1,2,3-triazol-5-yl)methanone], the IC50 is reported as 0.8 nM. O=C(c1cnn[nH]1)N1CC2CCC(C1)N2S(=O)(=O)c1cccc2nsnc12 [Example 54, [8-(2,1,3-benzothiadiazol-4-ylsulfonyl)-3,8-diazabicyclo[3.2.1]oct-3-yl](1H-1,2,3-triazol-5-yl)methanone] showed an IC50 of 1.2 nM. For O=C(c1cnn[nH]1)N1CC2CCC(C1)N2S(=O)(=O)c1cccc2nonc12 [Example 55, [8-(2,1,3-benzoxadiazol-4-ylsulfonyl)-3,8-diazabicyclo[3.2.1]oct-3-yl](1H-1,2,3-triazol-5-yl)methanone], the IC50 was 2.7 nM. O=C(c1cnn[nH]1)N1CC2CCC(C1)N2S(=O)(=O)c1c(Cl)cc(Cl)cc1Cl [Example 56, 1H-1,2,3-triazol-5-yl{8-[(2,4,6-trichlorophenyl)sulfonyl]-3,8-diazabicyclo[3.2.1]oct-3-yl}methanone] was tested, and the IC50 was 1.4 nM. COc1ccc(Cl)cc1S(=O)(=O)N1C2CCC1CN(C(=O)c1cnn[nH]1)C2 [Example 57, {8-[(5-chloro-2-methoxyphenyl)sulfonyl]-3,8-diazabicyclo[3.2.1]oct-3-yl}(1H-1,2,3-triazol-5-yl)methanone] gave an IC50 of 9.7 nM. In the case of O=C(c1cnn[nH]1)N1CC2CCC(C1)N2S(=O)(=O)c1ccc2nsnc2c1 [Example 58, [8-(2,1,3-benzothiadiazol-5-ylsulfonyl)-3,8-diazabicyclo[3.2.1]oct-3-yl](1H-1,2,3-triazol-5-yl)methanone], the IC50 is reported as 1.2 nM. Molecule O=C(c1cnn[nH]1)N1CC2CCC(C1)N2S(=O)(=O)c1ccc(F)c(F)c1F [Example 59, 1H-1,2,3-triazol-5-yl{8-[(2,3,4-trifluorophenyl)sulfonyl]-3,8-diazabicyclo[3.2.1]oct-3-yl}methanone] has an IC50 of 2.2 nM. N#Cc1cc(S(=O)(=O)N2C3CCC2CN(C(=O)c2cnn[nH]2)C3)ccc1F [Example 60, 2-fluoro-5-{[3-(1H-1,2,3-triazol-5-ylcarbonyl)-3,8-diazabicyclo[3.2.1]oct-8-yl]sulfonyl}benzonitrile] was tested, and the IC50 was 28.4 nM. O=C(c1cnn[nH]1)N1CC2CCC(C1)N2S(=O)(=O)c1cc(Cl)ccc1F [Example 61, {8-[(5-chloro-2-fluorophenyl)sulfonyl]-3,8-diazabicyclo[3.2.1]oct-3-yl}(1H-1,2,3-triazol-5-yl)methanone] gave an IC50 of 1.5 nM. For O=C(c1cnn[nH]1)N1CC2CCC(C1)N2S(=O)(=O)c1cc(F)c(F)cc1F [Example 62, 1H-1,2,3-triazol-5-yl{8-[(2,4,5-trifluorophenyl)sulfonyl]-3,8-diazabicyclo[3.2.1]oct-3-yl}methanone], the IC50 was 2.8 nM.
